# Source: patent US11932595B2, “VDR-silent vitamin D derivative as inhibitors of SREBP and pharmaceutical use thereof” (KYOTO UNIVERSITY, priority 2020, dated 2024)
# How the values were obtained:
# [1] = system: SREBP; test: SREBP luciferase reporter assay (pSRE-Luc) in CHO-K1 cells; assay type: cell-based; conditions: for SREBP inhibitory activity (expression of SREBP-responsive luciferase reporter gene): CHO-K1 cells, 5 μM compound, lipid-free medium, 24 h, FIGS. 1 and 3
# Procedure: (§1) Cell Culture: CHO-K1 cells were maintained in medium A (1:1 mixture of Ham's F-12 medium and DMEM, supplemented with 100 units/mL penicillin, 100 μg/mL streptomycin sulfate, and 5% [v/v] fetal bovine serum) at 37° C. in a humidified 5% CO2 incubator.
# (§2) CHO-K1 cells were seeded into 96-well plates at 8×10^3 cells per well in medium A and incubated for 24 h. For SREBP reporter assay, cells were co-transfected with an SRE-1-driven luciferase reporter plasmid (pSRE-Luc) and an actin promoter-driven β-galactosidase expression plasmid (pAc-13-gal) at a 20:1 ratio, using FuGENE HD Transfection Reagent (Promega) according to the manufacturer's protocol.
# (§3) After 20 h, the medium was changed to medium B (1:1 mixture of Ham's F-12 medium and DMEM, supplemented with 100 units/mL penicillin, 100 μg/mL streptomycin sulfate, 5% [v/v] lipid-depleted serum, 50 μM compactin (Tokyo Chemical Industry), and 50 μM lithium mevalonate (Sigma-Aldrich) containing the specific test compounds. After 24 h incubation, the cells in each well were lysed with 100 μL of 1× Reporter Lysis Buffer (Promega), and 50 μL of aliquots were used to measure luciferase and 13-gal activities. Luciferase activity was measured using the Steady-Glo Luciferase Assay System (Promega), and 13-gal activity was measured using the 13-Galactosidase Enzyme Assay System (Promega). Luciferase activity was normalized to 13-gal activity.
# […] The same experiment using of 25(OH)D3 (1) was performed as control. Values are mean±SD.
# [2] = Maynard et al. J Med. Chem. 1994; cited from earlier work
# [3] = system: VDR; test: VDR reporter assay (Cignal Vitamin D Receptor Reporter) in CHO-K1 cells; assay type: cell-based; conditions: 5 μM compound, lipid-free medium, FIGS. 2 and 4
# Procedure: as §1, §2
# For VDR reporter assay, Cignal Vitamin D Receptor Reporter (QIAGEN) was transfected instead of pSRE-Luc.
# as §3
# For the VDR assay, CHO-K1 cells were treated with 5 μM of the compounds in a lipid-free medium. The same experiment using 25(OH)D3 (1) was performed as control. Values are mean±SD.
# [4] = system: SREBP-responsive genes; test: Short-term in vivo model (fasting/refeeding): hepatic mRNA of SREBP-responsive genes by real-time PCR; set-up: species or system mice; conditions: for hepatic expression of SREBP-response genes ACC1 and FASN versus vehicle: 10 mg/kg intraperitoneally once every 24 hours, fasted 48 h/refed 48 h, n=3, FIG. 5C
# Procedure: (§4) To quickly and simultaneously examine their SREBP inhibitory activity and VDR-derived calcemic activity in vivo, a short-term in vivo screening system of mice was established. With reference to the previous report (Horton, J. D. et al. Proc. Natl. Acad. Sci. U.S.A. 1998, 95, 5987-5992.), mice were fasted for 48 hours then refed a special diet (low fat, high carbohydrate diet, lacking in vitamin D) for 48 hours before sacrifice.
# (§5) C57BL/6 and oh/oh mice were purchased from CLEA Japan and Charles River Japan, Inc., respectively. Animal experiments were carried out at the University of Tokyo and Charles River Laboratories. Low fat, high carbohydrate diet, lacking vitamin D was custom made by Research Diets, Inc. Compounds disclosed herein and 25(OH)D3 were dissolved in ethanol/Tween 20 (9:1) to obtain stock solution and then diluted 10-fold with PBS immediately before administration to mice.
# (§6) 10 mg/kg compounds or vehicle control were administered intraperitoneally once every 24 hours during the fasting and refeeding.
# Relative mRNA levels of SREBP-responsive genes were determined by real-time PCR in the livers obtained from the mice with free access to a normal diet or fasted and refed a special diet (means SEM, n=3 per group), *p<0.05.
# Expression levels of SREBP-responsive genes were determined by real-time PCR in the livers obtained from the mice treated with indicated compounds (10 mg/kg) according to the protocol illustrated in FIG. 5A. Data are expressed as relative expression to the mean value of vehicle-treated mouse liver (means±SEM, n=3 per group), *p<0.05 (FIG. 5C).
# Relative mRNA levels of SREBP-responsive genes were determined by real-time PCR in the livers obtained from the indicated mice Data are means±SEM (fed mice, n=3; others, n=6), *p<0.05 (FIG. 5E).
# [5] = Short-term in vivo model: serum calcium levels; set-up: species or system mice; conditions: 10 mg/kg intraperitoneally, after 4 days, n=3, FIG. 5D
# Procedure: as §4, §5, §6
# Following sacrifice, mouse livers were fixed in 10% neutral-buffered formalin, embedded in paraffin, sectioned, and stained with H&E. Hepatic lipids were extracted with chloroform/methanol (2:1 v/v), and TG and cholesterol contents were measured with Triglyceride Reagent Set (Pointe Scientific) and Cholesterol E (Wako), respectively. Serum levels of ALT, TG, glucose, cholesterol, and calcium were measured in SRL Inc. (Tokyo). All experiments were approved by the Ethics Committee for Animal Experimentation of the University of Tokyo and Charles River Laboratories Japan, and were conducted in accordance with the Guidelines for the Care and Use of Laboratory Animals.
# Serum calcium levels in the mice treated with vehicle, compounds, or 25(OH)D3 were determined (means±SEM, n=3 per group), *p<0.05 (FIG. 5D).
# [6] = cited from earlier work
# [7] = system: SREBP/SCAP; conditions: Nagata, ACS Chem. Biol. 2019; cited from earlier work
smiles,measurement,setting,value
"CC1=C(/C=C\C2=CCC[C@@]3(C)[C@@H]2CC[C@@H]3[C@H](C)CCCC(C)(C)O)C[C@@H](O)C[C@@H]1O [14-epi-25(OH) D3, reference compound]",expression of an SREBP-responsive luciferase reporter,"[1]; screening of in-house collection, data not shown",comparable level to 25(OH)D3
same,calcemic action,[2],markedly decreased calcemic action
"C[C@H](CCC(F)(F)C(C)(C)O)[C@H]1CC[C@H]2/C(=C/Cn3nnnc3-c3ccc(F)cc3)CCC[C@]12C [Compound 51, (R)-3,3-Difluoro-6-[(1R,3aS,7aR,E)-4-{2-[5-(4-fluorophenyl)-1H-tetrazol-1-yl]ethylidene}-7a-methyloctahydro-H-inden-1-yl]-2-methylheptan-2-ol]",SREBP inhibitory activity (expression of SREBP-responsive luciferase reporter gene),[1],maintained SREBP inhibitory activities
same,VDR activity (VDR reporter activation),[3],lacked in VDR activity
"C[C@H](CCCC(C)(C)O)[C@H]1CC[C@H]2/C(=C/Cn3cc(CCCCO)nn3)CCC[C@]12C [Compound 29, 6-[(1R,3aS,7aR,E)-4-{2-[4-(4-Hydroxybutyl)-1H-1,2,3-triazol-1-yl]ethylidene}-7a-methyloctahydro-1H-inden-1-yl]-2-methylheptan-2-ol]",VDR activity (VDR reporter activation),[3],detectable VDR activity
"C[C@H](CCCC(C)(C)O)[C@H]1CC[C@H]2/C(=C/C(=O)N3CCOCC3)CCC[C@]12C [Compound 20, 2-{(1R,3aS,7aR,E)-1-[(R)-6-Hydroxy-6-methylheptan-2-yl]-7a-methyloctahydro-4H-inden-4-ylidene}-1-morpholinoethan-1-one]",SREBP inhibitory activity (expression of SREBP-responsive luciferase reporter gene),[1],little effect
"C[C@H](CCCC(C)(C)O)[C@H]1CC[C@H]2/C(=C/Cn3cnnn3)CCC[C@]12C [Compound 21, (R)-6-{(1R,3aS,7aR,E)-4-[2-(1H-Tetrazol-1-yl)ethylidene]-7a-methyloctahydro-1H-inden-1-yl}-2-methylheptan-2-ol]",VDR activity (VDR reporter activation),[3],detectable VDR activity
"C[C@H](CCCC(C)(C)O)[C@H]1CC[C@H]2/C(=C/C(=O)N3CCCCC3)CCC[C@]12C [Compound 19, 2-{(1R,3 aS,7 aR,E)-1-[(R)-6-Hydroxy-6-methylheptan-2-yl]-7a-methyloctahydro-4H-inden-4-ylidene}-1-(piperidin-1-yl)ethan-1-one]",SREBP inhibitory activity (expression of SREBP-responsive luciferase reporter gene),[1],little effect
"C[C@H](CCC(F)(F)C(C)(C)O)[C@H]1CC[C@H]2/C(=C/Cn3nnc(-c4ccc(F)cc4)n3)CCC[C@]12C [Compound 49, 3,3-Difluoro-6-[(1R,3aS,7aR,E)-4-{2-[5-(4-fluorophenyl)-2H-tetrazol-2-yl]ethylidene}-7a-methyloctahydro-1H-inden-1-yl]-2-methylheptan-2-ol]",hepatic expression of SREBP-response genes ACC1 and FASN versus vehicle,[4],significantly suppressed
same,"elevated hepatic expression of the three SREBP-responsive genes ACC1, FASN and SCD1","[4]; 10 mg/kg intraperitoneally, fasting/refeeding, FIG. 5C",mitigated the elevated expression
same,serum calcium levels,[5],no detectable increase
same,SREBP inhibitory activity (expression of SREBP-responsive luciferase reporter gene),[1],maintained SREBP inhibitory activities
same,VDR activity (VDR reporter activation),[3],lacked in VDR activity
"C[C@H](CCCC(O)(C(F)(F)F)C(F)(F)F)[C@H]1CC[C@H]2/C(=C/Cn3cc(-c4ccccc4)nn3)CCC[C@]12C [Compound 38, (R)-1,1,1-Trifluoro-6-{(1R,3aS,7aR,E)-7a-methyl-4-[2-(4-phenyl-1H-1,2,3-triazol-1-yl)ethylidene]octahydro-1H-inden-1-yl}-2-(trifluoromethyl)heptan-2-ol]",hepatic expression of SREBP-response genes ACC1 and FASN versus vehicle,[4],significantly suppressed
same,serum calcium levels,[5],elevated levels of serum calcium
"C[C@H](CCCC(C)(C)O)[C@H]1CC[C@H]2/C(=C/Cn3cc(-c4ccccn4)nn3)CCC[C@]12C [Compound 26, (R)-2-Methyl-6-[(1R,3aS,7aR,E)-7a-methyl-4-{2-[4-(pyridin-2-yl)-1H-1,2,3-triazol-1-yl]ethylidene}octahydro-1H-inden-1-yl]heptan-2-ol]",VDR activity (VDR reporter activation),[3],detectable VDR activity
"C[C@H](CCCC(O)(C(F)(F)F)C(F)(F)F)[C@H]1CC[C@H]2/C(=C/Cn3cc(-c4ccc(F)cc4)nn3)CCC[C@]12C [Compound 39, (R)-1,1,1-Trifluoro-6-[(1R,3aS,7aR,E)-4-{2-[4-(4-fluorophenyl)-1H-1,2,3-triazol-1-yl]ethylidene}-7a-methyloctahydro-1H-inden-1-yl]-2-(trifluoromethyl)heptan-2-ol]",hepatic expression of SREBP-response genes ACC1 and FASN versus vehicle,[4],significantly suppressed
same,serum calcium levels,[5],elevated levels of serum calcium
same,SREBP inhibitory activity (expression of SREBP-responsive luciferase reporter gene),[1],maintained SREBP inhibitory activities
same,VDR activity (VDR reporter activation),[3],lacked in VDR activity
C[C@H](CCCC(C)(C)O)[C@H]1CC[C@H]2/C(=C/Cn3ncnn3)CCC[C@]12C [Compound 22],VDR activity (VDR reporter activation),[3],detectable VDR activity
Cc1ccc(S(=O)(=O)N[C@@H]2C/C(=C/C=C3\CCC[C@]4(C)[C@@H]([C@H](C)CCCC(O)(C(F)(F)F)C(F)(F)F)CC[C@@H]34)C[C@@H](F)C2)cc1 [Compound 3],calcemic activity in vivo,[6]; high doses,residual calcemic activity
same,bioavailability,[6]; in vivo,low
same,effect on SREBP/SCAP and VDR activity in cultured cells,[7],selectively impaired SREBP/SCAP without eliciting VDR activity
"C[C@H](CCC(F)(F)C(C)(C)O)[C@H]1CC[C@H]2/C(=C/Cn3cc(-c4ccc(F)cc4)nn3)CCC[C@]12C [Compound 47, (R)-3,3-Difluoro-6-[(1R,3aS,7aR,E)-4-{2-[4-(4-fluorophenyl)-1H-1,2,3-triazol-1-yl]ethylidene}-7a-methyloctahydro-1H-inden-1-yl]-2-methylheptan-2-ol]",SREBP inhibitory activity (expression of SREBP-responsive luciferase reporter gene),[1],maintained SREBP inhibitory activities
same,VDR activity (VDR reporter activation),[3],lacked in VDR activity
